Measurements taken from paper PMC6470675, “Design and Synthesis of New Quinoxaline Derivatives as Anticancer Agents and Apoptotic Inducers” (Molecules, 2019).

system: HCT116 human colon carcinoma cell line; test: In vitro cell proliferation (MTT) assay, HCT116; type: cell-based; conditions: Homo sapiens, HCT-116; MTT, 72 h exposure
Experimental: (§1) The targeted compounds were tested for their in-vitro anti-cancer activity against three tumor cell lines (HCT116, Hep G2 and MCF-7). Doxorubicin was included in the experiments as a reference cytotoxic compound. Exponentially growing cells from different cancer cell lines were trypsinized, counted and seeded at the appropriate densities into 96-well microtiter plates. Cells then were incubated in a humidified atmosphere at 37 °C for 24 h. Then, cells were exposed to different concentrations of compounds for 72 h. Then the viability of treated cells was determined using MTT technique (described latter).
(§2) Three cancer cell lines including human colon carcinoma (HCT116), human breast adenocarcinoma (MCF-7) and human hepatocellular carcinoma (Hep G2), were purchased from American Type Cell Culture Collection (ATCC, Manassas, VA, USA) and grown on the appropriate growth medium Dulbecco’s modified Eagle’s medium (DMEM) or Roswell Park Memorial Institute medium (RPMI 1640) supplemented with […] of streptomycin, 100 units/mL of penicillin and 10% of heat-inactivated fetal bovine serum in a humidified, 5% (v/v) CO2 atmosphere at 37 °C [34]. Cytotoxicity assay by 3-[4,5-dimethylthiazole-2-yl]-2,5-diphenyltetrazolium bromide (MTT).
(§3) Exponentially growing cells from different cancer cell lines were trypsinized, counted and seeded at the appropriate densities (2000–1000 cells/0.33 cm^2 well) into 96-well microtiter plates. Cells then were incubated in a humidified atmosphere at 37 °C for 24 h. Then, cells were exposed to different concentrations of compounds (0.1, 10, 100, 1000 µM) for 72 h. Then the viability of treated cells was determined using MTT technique as follow. Media were removed; cells were incubated with 200 μL of 5% MTT solution/well (Sigma Aldrich, Darmstadt, Germany) and were allowed to metabolize the dye into a colored-insoluble formazan crystal for 2 h. The remaining MTT solution were discarded from the wells and the formazan crystals were dissolved in 200 µl/well acidified isopropanol for 30 min, covered with aluminum foil and with continuous shaking using a MaxQ 2000 plate shaker (Thermo Fisher Scientific Inc, Waltham, MA, USA) at room temperature. Absorbance were measured at 570 nm using a Stat Fax^R 4200 plate reader (Awareness Technology, Inc., Awareness Technology, FL, USA). The cell viability was expressed as percentage of control and the concentration that induces 50% of maximum inhibition of cell proliferation (IC50) were determined using Graph Pad Prism version 5 software (Graph Pad Software Inc, San Diego, CA, USA) (1,2).

Compound	IC50 [µM]
Cc1nc2ccccc2nc1Nc1ccc(NS(=O)(=O)c2ccc([N+](=O)[O-])cc2)cc1 [IXb, N-(4-((3-Methylquinoxalin-2-yl)amino)phenyl)-4-nitrobenzenesulfonamide]	12
O=C(Nc1ccc(Cl)cc1)c1cccc(Nc2nc3ccccc3nc2Cl)c1 [Compound XVb, N-(4-Chlorophenyl)-3-((3-chloroquinoxalin-2-yl)amino)benzamide]	15.5
O=C(Nc1ccccc1)Nc1ccc(Nc2nc3ccccc3nc2Cl)cc1 [XVIIb, 1-(4-((3-Chloroquinoxalin-2-yl)amino)phenyl)-3-phenylurea]	170
O=C(Nc1ccc(Cl)cc1)Nc1ccc(Nc2nc3ccccc3nc2Cl)cc1 [XVIIc, 1-(4-Chlorophenyl)-3-(4-((3-chloroquinoxalin-2-yl)amino)phenyl)urea]	257
O=C(Nc1ccc(Nc2nc3ccccc3nc2Cl)cc1)c1ccccc1 [XVIa, N-(4-((3-Chloroquinoxalin-2-yl)amino)phenyl)benzamide]	347
Cc1ccc(S(=O)(=O)Nc2ccc(Nc3nc4ccccc4nc3Cl)cc2)cc1 [XVIIIa, N-(4-((3-Chloroquinoxalin-2-yl)amino)phenyl)-4-methylbenzenesulfonamide]	302
S=C(Nc1ccccc1)Nc1ccc(Nc2nc3ccccc3nc2Cl)cc1 [XVIIa, 1-(4-((3-Chloroquinoxalin-2-yl)amino)phenyl)-3-phenylthiourea]	309
Cc1ccc(S(=O)(=O)Nc2ccc(Nc3nc4ccccc4nc3C)cc2)cc1 [IXa, 4-Methyl-N-(4-((3-methylquinoxalin-2-yl)amino)phenyl) benzenesulphonamide]	21.9

system: Hep G2 human hepatocellular carcinoma cell line; test: In vitro cell proliferation (MTT) assay, Hep G2; type: cell-based; conditions: Homo sapiens, HepG2; MTT, 72 h exposure
Experimental: as §1, §2, §3

Compound	IC50 [µM]
Cc1nc2ccccc2nc1Nc1ccc(NS(=O)(=O)c2ccc([N+](=O)[O-])cc2)cc1 [IXb, N-(4-((3-Methylquinoxalin-2-yl)amino)phenyl)-4-nitrobenzenesulfonamide]	24.5
O=C(Nc1ccc(Cl)cc1)c1cccc(Nc2nc3ccccc3nc2Cl)c1 [Compound XVb, N-(4-Chlorophenyl)-3-((3-chloroquinoxalin-2-yl)amino)benzamide]	27.5
O=C(Nc1ccccc1)Nc1ccc(Nc2nc3ccccc3nc2Cl)cc1 [XVIIb, 1-(4-((3-Chloroquinoxalin-2-yl)amino)phenyl)-3-phenylurea]	513
O=C(Nc1ccc(Cl)cc1)Nc1ccc(Nc2nc3ccccc3nc2Cl)cc1 [XVIIc, 1-(4-Chlorophenyl)-3-(4-((3-chloroquinoxalin-2-yl)amino)phenyl)urea]	616
O=C(Nc1ccc(Nc2nc3ccccc3nc2Cl)cc1)c1ccccc1 [XVIa, N-(4-((3-Chloroquinoxalin-2-yl)amino)phenyl)benzamide]	513
Cc1ccc(S(=O)(=O)Nc2ccc(Nc3nc4ccccc4nc3Cl)cc2)cc1 [XVIIIa, N-(4-((3-Chloroquinoxalin-2-yl)amino)phenyl)-4-methylbenzenesulfonamide]	490
S=C(Nc1ccccc1)Nc1ccc(Nc2nc3ccccc3nc2Cl)cc1 [XVIIa, 1-(4-((3-Chloroquinoxalin-2-yl)amino)phenyl)-3-phenylthiourea]	575
Cc1ccc(S(=O)(=O)Nc2ccc(Nc3nc4ccccc4nc3C)cc2)cc1 [IXa, 4-Methyl-N-(4-((3-methylquinoxalin-2-yl)amino)phenyl) benzenesulphonamide]	22.9

molecular target: T1, VEGFR-2 (Homo sapiens, UniProt P35968); test: In vitro VEGFR-2 inhibition assay (Kinase-Glo Plus luminescence); type: biochemical; conditions: read-out: % of VEGFR-2 Inhibition
T1 construct: purchased Bio Science Corporation (BPS), San Diego, CA, USA
T1 sequence (P35968 20-1356): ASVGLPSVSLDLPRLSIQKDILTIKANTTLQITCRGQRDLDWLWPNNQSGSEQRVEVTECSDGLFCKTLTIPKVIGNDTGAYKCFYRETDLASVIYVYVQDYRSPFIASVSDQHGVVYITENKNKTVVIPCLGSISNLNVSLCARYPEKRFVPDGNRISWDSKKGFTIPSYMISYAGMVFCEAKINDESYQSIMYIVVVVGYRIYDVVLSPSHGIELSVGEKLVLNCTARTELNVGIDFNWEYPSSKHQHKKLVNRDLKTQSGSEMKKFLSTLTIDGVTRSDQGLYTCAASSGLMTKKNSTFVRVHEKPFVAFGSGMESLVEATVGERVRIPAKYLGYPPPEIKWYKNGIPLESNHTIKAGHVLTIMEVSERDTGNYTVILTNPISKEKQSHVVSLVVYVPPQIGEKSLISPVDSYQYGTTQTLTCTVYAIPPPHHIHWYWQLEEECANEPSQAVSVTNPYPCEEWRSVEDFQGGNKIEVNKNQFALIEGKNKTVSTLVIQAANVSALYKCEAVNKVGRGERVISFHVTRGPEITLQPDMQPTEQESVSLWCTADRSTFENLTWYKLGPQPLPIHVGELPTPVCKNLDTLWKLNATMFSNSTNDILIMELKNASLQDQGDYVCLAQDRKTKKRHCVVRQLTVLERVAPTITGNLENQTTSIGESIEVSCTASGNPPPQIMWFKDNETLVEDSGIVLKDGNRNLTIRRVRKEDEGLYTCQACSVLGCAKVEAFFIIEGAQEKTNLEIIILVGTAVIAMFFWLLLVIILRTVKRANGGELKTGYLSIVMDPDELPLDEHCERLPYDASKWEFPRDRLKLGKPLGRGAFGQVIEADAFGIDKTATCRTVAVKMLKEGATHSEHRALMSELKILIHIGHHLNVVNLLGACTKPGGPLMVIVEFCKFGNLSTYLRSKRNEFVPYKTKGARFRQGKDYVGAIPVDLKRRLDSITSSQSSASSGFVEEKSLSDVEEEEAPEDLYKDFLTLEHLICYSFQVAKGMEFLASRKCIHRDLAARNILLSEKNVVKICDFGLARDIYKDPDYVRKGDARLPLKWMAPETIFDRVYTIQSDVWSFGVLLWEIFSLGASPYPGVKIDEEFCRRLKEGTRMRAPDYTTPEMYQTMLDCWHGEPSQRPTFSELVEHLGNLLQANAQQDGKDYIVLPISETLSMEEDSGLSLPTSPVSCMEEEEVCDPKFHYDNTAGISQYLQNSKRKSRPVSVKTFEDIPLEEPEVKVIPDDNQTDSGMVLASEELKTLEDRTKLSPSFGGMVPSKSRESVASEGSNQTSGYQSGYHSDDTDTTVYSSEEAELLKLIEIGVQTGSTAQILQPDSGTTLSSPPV
Experimental: In an attempt to investigate the possible mechanism of action of the synthesized compounds based on structural similarity with sorafenib, all of them were tested for VEGFR-2 inhibitory activity at Bio Science Corporation (BPS, San Diego, CA, USA). The assay was performed using the Kinase-Glo Plus luminescence kinase assay kit (Promega, San Diego, CA, USA). It measures kinase activity by quantitating the amount of ATP remaining in solution following a kinase reaction. […].
The in-vitro enzyme inhibition determination for the synthesized compounds was carried out at Bio Science Corporation (BPS)-San Diego, CA, USA. The assay was performed using Kinase-Glo Plus luminescence kinase assay kit (Promega), where the kinase activity was measured by quantitating the amount of ATP remaining in solution following a kinase reaction. The luminescent signal from the assay is correlated with the amount of ATP present and is inversely correlated with the amount of kinase activity. Our compounds were diluted with 10% DMSO and 5 µL of the dilution was added to a 50 µL reaction so that the final concentration of DMSO is 1% in all of reactions. All of the enzymatic reactions were conducted at 30 °C for 40 min. The 50 µL reaction mixture contains 40 mM Tris, pH 7.4, 10 mM MgCl2, 0.1 mg/mL BSA, 1 mM DTT, 10 µM ATP, Kinase substrate and the enzyme. After the enzymatic reaction, 50 µL of Kinase-Glo Plus Luminescence kinase assay solution (Promega San Diego, CA, USA) was added to each reaction and incubate the plate for 5 min at room temperature. Luminescence signal was measured using a BioTek Synergy 2 microplate reader.
Kinase activity assays were performed in duplicate at each concentration. The luminescence data were analyzed using the computer software, Graphpad Prism. The difference between luminescence intensities in the absence of Kinase (Lut) and in the presence of Kinase (Luc) was defined as 100% activity (Lut − Luc). Using luminescence signal (Lu) in the presence of the compound, % activity was calculated as:% activity = {(Lut − Lu)(Lut − Luc)} × 100% where Lu = the luminescence intensity in the presence of the compound.

Compound	inhibition at 10 µM [%]
CN[C@@H]1C[C@H]2O[C@@](C)([C@@H]1OC)n1c3ccccc3c3c4c(c5c6ccccc6n2c5c31)C(=O)NC4 [Staurosporine, staurosporine, reference compound]	100

same assay, conditions: single concentration of 10 µM; read-out: % of VEGFR-2 Inhibition

Compound	inhibition at 10 µM [%]
Cc1nc2ccccc2nc1Nc1ccc(NS(=O)(=O)c2ccc([N+](=O)[O-])cc2)cc1 [IXb, N-(4-((3-Methylquinoxalin-2-yl)amino)phenyl)-4-nitrobenzenesulfonamide]	3
Cc1ccc(C(=O)Nc2ccc(Nc3nc4ccccc4nc3Cl)cc2)cc1 [XVId, N-(4-((3-Chloroquinoxalin-2-yl)amino)phenyl)-4-methylbenzamide]	3
O=C(Nc1ccc(Cl)cc1)c1cccc(Nc2nc3ccccc3nc2Cl)c1 [Compound XVb, N-(4-Chlorophenyl)-3-((3-chloroquinoxalin-2-yl)amino)benzamide]	7
O=C(Nc1ccccc1)Nc1ccc(Nc2nc3ccccc3nc2Cl)cc1 [XVIIb, 1-(4-((3-Chloroquinoxalin-2-yl)amino)phenyl)-3-phenylurea]	10
O=C(Nc1ccc(Cl)cc1)Nc1ccc(Nc2nc3ccccc3nc2Cl)cc1 [XVIIc, 1-(4-Chlorophenyl)-3-(4-((3-chloroquinoxalin-2-yl)amino)phenyl)urea]	6
O=C(Nc1ccc(Nc2nc3ccccc3nc2Cl)cc1)c1ccccc1 [XVIa, N-(4-((3-Chloroquinoxalin-2-yl)amino)phenyl)benzamide]	8
Cc1ccc(S(=O)(=O)Nc2ccc(Nc3nc4ccccc4nc3Cl)cc2)cc1 [XVIIIa, N-(4-((3-Chloroquinoxalin-2-yl)amino)phenyl)-4-methylbenzenesulfonamide]	4
S=C(Nc1ccccc1)Nc1ccc(Nc2nc3ccccc3nc2Cl)cc1 [XVIIa, 1-(4-((3-Chloroquinoxalin-2-yl)amino)phenyl)-3-phenylthiourea]	10
Cc1ccc(S(=O)(=O)Nc2ccc(Nc3nc4ccccc4nc3C)cc2)cc1 [IXa, 4-Methyl-N-(4-((3-methylquinoxalin-2-yl)amino)phenyl) benzenesulphonamide]	3

system: three tumor cell lines (HCT116, Hep G2 and MCF-7); test: In vitro anti-cancer activity stated for the tested cell lines together; type: cell-based, human; conditions: HCT116, Hep G2 and MCF-7 together
Experimental: as §1, §2
Exponentially growing cells from different cancer cell lines were trypsinized, counted and seeded at the appropriate densities (2000–1000 cells/0.33 cm^2 well) into 96-well microtiter plates. Cells then were incubated in a humidified atmosphere at 37 °C for 24 h. Then, cells were exposed to different concentrations of compounds (0.1, 10, 100, 1000 µM) for 72 h. Then the viability of treated cells was determined using MTT technique as follow. Media were removed; cells were incubated with 200 μL of 5% MTT solution/well (Sigma Aldrich, Darmstadt, Germany) and were allowed to metabolize the dye into a colored-insoluble formazan crystal for 2 h. […] Absorbance were measured at 570 nm using a Stat Fax^R 4200 plate reader (Awareness Technology, Inc., Awareness Technology, FL, USA). […]

Compound	activity against the tested cell lines (in words)
O=C(Nc1ccc(Cl)cc1)c1cccc(Nc2nc3ccccc3nc2Cl)c1 [Compound XVb, N-(4-Chlorophenyl)-3-((3-chloroquinoxalin-2-yl)amino)benzamide]	moderate to weak activities

system: MCF-7 human breast adenocarcinoma cell line; test: In vitro cell proliferation (MTT) assay, MCF-7; type: cell-based; conditions: Homo sapiens, MCF7; MTT, 72 h exposure
Experimental: as §1, §2, §3

Compound	IC50 [µM]
Cc1nc2ccccc2nc1Nc1ccc(NS(=O)(=O)c2ccc([N+](=O)[O-])cc2)cc1 [IXb, N-(4-((3-Methylquinoxalin-2-yl)amino)phenyl)-4-nitrobenzenesulfonamide]	10.2
O=C(Nc1ccc(Cl)cc1)c1cccc(Nc2nc3ccccc3nc2Cl)c1 [Compound XVb, N-(4-Chlorophenyl)-3-((3-chloroquinoxalin-2-yl)amino)benzamide]	21.4
O=C(Nc1ccccc1)Nc1ccc(Nc2nc3ccccc3nc2Cl)cc1 [XVIIb, 1-(4-((3-Chloroquinoxalin-2-yl)amino)phenyl)-3-phenylurea]	148
O=C(Nc1ccc(Cl)cc1)Nc1ccc(Nc2nc3ccccc3nc2Cl)cc1 [XVIIc, 1-(4-Chlorophenyl)-3-(4-((3-chloroquinoxalin-2-yl)amino)phenyl)urea]	692
O=C(Nc1ccc(Nc2nc3ccccc3nc2Cl)cc1)c1ccccc1 [XVIa, N-(4-((3-Chloroquinoxalin-2-yl)amino)phenyl)benzamide]	324
Cc1ccc(S(=O)(=O)Nc2ccc(Nc3nc4ccccc4nc3Cl)cc2)cc1 [XVIIIa, N-(4-((3-Chloroquinoxalin-2-yl)amino)phenyl)-4-methylbenzenesulfonamide]	537
S=C(Nc1ccccc1)Nc1ccc(Nc2nc3ccccc3nc2Cl)cc1 [XVIIa, 1-(4-((3-Chloroquinoxalin-2-yl)amino)phenyl)-3-phenylthiourea]	170
Cc1ccc(S(=O)(=O)Nc2ccc(Nc3nc4ccccc4nc3C)cc2)cc1 [IXa, 4-Methyl-N-(4-((3-methylquinoxalin-2-yl)amino)phenyl) benzenesulphonamide]	22.9

system: not given; test: not given; conditions: not given

Compound	melting point [°C]
Cc1nc2ccccc2nc1Nc1ccc(NS(=O)(=O)c2ccc([N+](=O)[O-])cc2)cc1 [IXb, N-(4-((3-Methylquinoxalin-2-yl)amino)phenyl)-4-nitrobenzenesulfonamide]	180 to 182
Cc1ccc(C(=O)Nc2ccc(Nc3nc4ccccc4nc3Cl)cc2)cc1 [XVId, N-(4-((3-Chloroquinoxalin-2-yl)amino)phenyl)-4-methylbenzamide]	245 to 246
O=C(Nc1ccc(Cl)cc1)c1cccc(Nc2nc3ccccc3nc2Cl)c1 [Compound XVb, N-(4-Chlorophenyl)-3-((3-chloroquinoxalin-2-yl)amino)benzamide]	283 to 285
O=C(Nc1ccccc1)Nc1ccc(Nc2nc3ccccc3nc2Cl)cc1 [XVIIb, 1-(4-((3-Chloroquinoxalin-2-yl)amino)phenyl)-3-phenylurea]	280 to 281
O=C(Nc1ccc(Cl)cc1)Nc1ccc(Nc2nc3ccccc3nc2Cl)cc1 [XVIIc, 1-(4-Chlorophenyl)-3-(4-((3-chloroquinoxalin-2-yl)amino)phenyl)urea]	> 300
O=C(Nc1ccc(Nc2nc3ccccc3nc2Cl)cc1)c1ccccc1 [XVIa, N-(4-((3-Chloroquinoxalin-2-yl)amino)phenyl)benzamide]	270 to 273
Cc1ccc(S(=O)(=O)Nc2ccc(Nc3nc4ccccc4nc3Cl)cc2)cc1 [XVIIIa, N-(4-((3-Chloroquinoxalin-2-yl)amino)phenyl)-4-methylbenzenesulfonamide]	250 to 252
S=C(Nc1ccccc1)Nc1ccc(Nc2nc3ccccc3nc2Cl)cc1 [XVIIa, 1-(4-((3-Chloroquinoxalin-2-yl)amino)phenyl)-3-phenylthiourea]	190 to 191
Cc1ccc(S(=O)(=O)Nc2ccc(Nc3nc4ccccc4nc3C)cc2)cc1 [IXa, 4-Methyl-N-(4-((3-methylquinoxalin-2-yl)amino)phenyl) benzenesulphonamide]	198 to 199
